Test results reported in paper PMC9646836, “Tetrahydroquinolinone derivatives exert antiproliferative effect on lung cancer cells through apoptosis induction” (Scientific Reports, 2022).

Key:
HCT-116 = experiment: MTT cell viability assay, HCT-116; type: cell-based, human; conditions: mean ± SD, n = 3
Procedure: (§1) All new tetrahydroquinoline derivatives were assessed for cytotoxicity on a broad panel of cancer and normal cell lines, using the MTT assay. The half-inhibitory growth inhibitory concentration (IC50) values of each compound were calculated after 72 h of treatment and presented in Table 1. […] In this assay, the IC50 value of 5-FU and ETP was recorded as a positive control.
(§2) Non-small cell lung cancer cells A549 (CCL-185), breast cancer cells MCF-7 ([…]), hepatocarcinoma cells HepG2 ([…]), normal kidney cells HEK293 (CRL-1573), and osteosarcoma cells U-2 OS (HTB-96) were obtained from the American Type Culture Collection. HCT-116 cell line was kindly provided by prof. Bert Vogelstein (Johns Hopkins University, Howard Hughes Medical Institute, USA). The obtained A549 and MCF-7 cells were cultured in RPMI-1640 medium, HepG2 cells in Minimum Essential Medium Eagle medium, HEK-293 cells in Dulbecco’s Modified Eagle’s medium, and U-2 OS and HCT-116 cells in McCoy’s […] medium. All culture media were supplemented with 10% fetal bovine serum, 2 mM L-glutamine, and antibiotics (penicillin 62.6 µg/ml and streptomycin 40 µg/ml; Sigma-Aldrich). Both cancer and normal cells were cultured at 37 °C under a humidified atmosphere with 5% or 10% CO2 and routinely screened for Mycoplasma contamination. All materials and reagents were obtained from Corning unless stated otherwise.
(§3) The cytotoxic effect of the synthesized compounds was assessed by the MTT (4,5-dimethylthiazol-2-yl-2,5-diphenyltetrazoliumbromide; Sigma-Aldrich) assay. Briefly, the cells were seeded into 96-well transparent flat-bottom plates and allowed to attach overnight. On the next day, the cells were treated with compounds in the range of 0–50 µM for 72 h. Dimethyl sulfoxide (DMSO; Merck) and 5-fluorouracil (5-FU; Sigma-Aldrich) were used as a reference. After exposure to the compounds, 20 μl of the MTT solution at a concentration of 4 mg/ml was added to each well, and the plates were incubated again for 2–3 h at 37 °C. Next, the media in the wells was replaced with 100 μl DMSO to solubilize the formazan crystals. The absorbance was measured at 540 nm using an ASYS UVM340 microplate reader (Biochrom Ltd.). The IC50 value of the compounds was calculated using GraphPad Prism 9 software, based on the curves plotted with survival as a function of dose, averaged from three independent experiments.

A549 = experiment: MTT cell viability assay, A549; type: cell-based, human; conditions: Homo sapiens, A549, 72 h, mean ± SD, n = 3
Procedure: as §1, §2, §3

Hela = experiment: MTT cell viability assay, Hela; type: cell-based; conditions: Homo sapiens, HeLa, 72 h, mean ± SD, n = 3
Procedure: as §1, §3

A549 cells [1] = experiment: Colony formation assay; type: cell-based, human; conditions: A549, 24 h pretreatment, 9 days culture, vs DMSO-treated control
Procedure: HCT-116 and A549 cells were seeded into six-well plates at a density of 500 cells per well and allowed to attach overnight. On the next day, the cells were pretreated with compound 4a at different concentrations or with 1% v/v DMSO for 24 h. After incubation, the cells were washed and cultured for 9 days. Next, the cells were fixed with methanol for 20 min and stained with 0.5% crystal violet (Sigma-Aldrich). Finally, the plates were dried overnight and imaged using a UVITEC Cambridge imaging system. Quantification was performed with ImageJ software. The surviving fraction was calculated as previously described. Each experiment was repeated three times.

A549 cells [2] = experiment: Cell cycle progression (propidium iodide, flow cytometry); type: cell-based, human; conditions: A549, IC50 concentration
Procedure: A549 and HCT-116 cells were incubated with the tested compounds at their IC50 concentrations for 24, 48, and 72 h. DMSO (1% v/v) was used as a reference (Sigma-Aldrich). After incubation, the cells were collected in trypsin, fixed with 75% ice-cold ethanol, and stored overnight at − 20 °C. Then, the cells were stained with 20 μg/ml propidium iodide (Sigma-Aldrich) and 50 μg/ml RNaseA (Thermo Fisher Scientific) in phosphate-buffered saline (PBS) for 30 min at room temperature (RT). The content of DNA in cells was determined by flow cytometry (Guava EasyCyte 8 cell sorter; Merck Millipore) using FlowJo software v10. Each experiment was repeated three times.

IC50 (HCT-116; 72 h): 12.2 ± 1.61 µM
IC50 (HCT-116; Homo sapiens, HCT-116, 72 h): ~13 µM
IC50 (A549): 11.3 ± 0.67 µM
IC50 (Hela): > 50 µM
SMILES: O=c1[nH]c2c(c(-c3ccccc3)c1Cc1cccc3ccccc13)CCCC2 [Compound 4a, 3-(1-naphthylmethyl)-4-phenyl-5,6,7,8-tetrahydro-1H-quinolin-2-one]
number of observed colonies (A549 cells [1]): significantly decreased
fraction of cells at the G0/G1 phase (A549 cells [2]): time-dependent decrease
fraction of cells in sub-G0 phase (A549 cells [2]): concomitant increase
fraction of cells in G2 phase (A549 cells [2]; 24 h (DMSO 3.2%)): 15.5%
fraction of cells in G2 phase (A549 cells [2]; 48 h (DMSO 3.2%)): 33.8%
